Test results from patent US10092493B2, “Composition of skin external application for anti-aging” (AMOREPACIFIC CORPORATION, priority 2005, dated 2018).

Experiments:
[1] = tested on: Tumor Necrosis Factor alpha (TNF-α); experiment: Inhibition of TNF-α biosynthesis after UV irradiation (ELISA); assay type: cell-based; details: human keratinocytes, UV-B 30 mJ/cm^2, 10 μM (10 ppm of extract), 6 to 24 hours; UV control = 100
Protocol: Human keratinocytes were cultured in a 12-well plate type incubator at a concentration of 10^4. The plate was irradiated by UV-B at 30 mJ/cm^2. The media were exchanged with new medium containing 10 μM of each test substance (10 ppm of extract). After 6 to 24 hours of cultivation, the cells were harvested and subjected to ELISA (Pharmingen 555212) to determine the amount of produced tumor necrosis factor α (TNF-α). As the positive control, Wy-14,643 was used.

[2] = biological target: T1, PPAR-α (Peroxisome Proliferator Activated Receptor-alpha) (Homo sapiens, UniProt Q07869); experiment: Activation of PPAR-α, luciferase reporter in CV-1 cells; assay type: cell-based; details: 24 hours, negative control and non-treated group = 1.0
T1 construct: expressed in transfected cells; host or cells: CV-1 monkey kidney epithelial cells (ATCC CCL 70)
T1 sequence (Q07869 1-468): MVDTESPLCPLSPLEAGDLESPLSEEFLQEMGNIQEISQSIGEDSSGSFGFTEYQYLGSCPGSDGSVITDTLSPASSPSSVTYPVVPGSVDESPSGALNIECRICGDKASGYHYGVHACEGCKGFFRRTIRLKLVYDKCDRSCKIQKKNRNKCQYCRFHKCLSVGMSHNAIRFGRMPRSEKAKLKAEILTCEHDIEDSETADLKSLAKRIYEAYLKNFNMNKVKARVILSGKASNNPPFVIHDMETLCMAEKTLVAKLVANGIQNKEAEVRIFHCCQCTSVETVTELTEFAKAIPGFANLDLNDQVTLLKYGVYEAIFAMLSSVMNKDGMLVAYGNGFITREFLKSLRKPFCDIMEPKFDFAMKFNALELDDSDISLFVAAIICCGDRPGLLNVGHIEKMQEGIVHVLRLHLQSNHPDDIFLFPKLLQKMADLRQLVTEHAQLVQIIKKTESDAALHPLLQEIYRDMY
Protocol: Monkey kidney epithelial cell line CV-1 (ATCC CCL 70) was subcultured in a DMEM medium containing 10% fetal bovine serum treated with charcol/dextran, which was a phenol red-free medium to remove the effect by estrogen of phenol red.
CV-1 cells were distributed in a 24-well plate type incubator at a concentration of 5×10^4. After 24 hours cultivation, the 3 different plasmids were transient transfected. After 24 hours cultivation, the plate was washed with 1×PBS (Phosphate Buffered Saline) and treated with ligand candidates at various concentrations. After 24 hours cultivation, the plate was washed with 1×PBS and the cells were lyzed with 1×PLB (Passive Lysis Buffer) and measured for luciferase activity using Dual-Luciferase® Reporter Assay System kit.

MMP-2 = experiment: Inhibition of MMP-2 biosynthesis after UV irradiation (gelatin zymography); assay type: cell-based; details: human keratinocytes, UV-B 30 mJ/cm^2, 10 ppm test substance, 2 days; UV control = 100
Protocol: (§1) After 24 hours, the plate was irradiated by UV-B at 30 mJ/cm^2. The media were exchanged with new medium containing 10 ppm of each test substance. After 2 days of cultivation, each supernatant was harvested and subjected to the zymography using gelatine gel to obtain produced MMP-2 and MMP-9, quantities of which were then measured by a densitometer.

[3] = tested on: Type I Collagenase (MMP-1); experiment: Inhibition of type I collagenase (MMP-1) biosynthesis after UV-A irradiation, test substances (ELISA); assay type: cell-based; details: new born human fibroblasts, UV-A 15 J/cm^2, 10 μM or 10 ppm, UV negative control = 100; for Type I collagenase biosynthesis (%), UV-A + TNF-α treated group: plus TNF-α 10 ng/ml
Protocol: To describe the experiment method in detail, human fibroblasts isolated from the skin of a new born baby were cultured in a 48-well plate type incubator at a concentration of 10^4. After 24 hours, the plate was irradiated by UV-A at 15 J/cm^2. […] At the second day of cultivation, the supernatants were harvested and subjected to ELISA (AP biotech RPN2610) to determine the amount of produced type I collagenase. As the positive control, Wy-14,643 and retinoic acid (RA) were used.

MMP-9 = experiment: Inhibition of MMP-9 biosynthesis after UV irradiation (gelatin zymography); assay type: cell-based; details: human keratinocytes, UV-B 30 mJ/cm^2, 10 ppm test substance, 2 days; UV control = 100
Protocol: as §1

laminin 10/11 = experiment: Biosynthesis of laminin 10/11 in keratinocytes (Western Blot); assay type: cell-based; details: human keratinocytes, 10 ppm, 24 hours; control = 100
Protocol: Human keratinocytes were cultured in a 24-well plate type incubator at a concentration of 5×10^4. The media were exchanged with new medium containing 10 ppm of each test substance. After 24 hours of cultivation, each supernatant was harvested and subjected to the Western Blot method to measure the amount of produced laminin 10/11.

type VII collagen = experiment: Biosynthesis of type VII collagen in fibroblasts (Dot Blot); assay type: cell-based; details: human fibroblasts, 10 ppm, 24 hours; control = 100
Protocol: The media were exchanged with new medium containing 10 ppm of each test substance. After 24 hours of cultivation, each supernatant was harvested and subjected to the Dot Blot method to measure the amount of produced type VII collagen.

pro-collagen = experiment: Biosynthesis of collagen (pro-collagen ELISA) in fibroblasts; assay type: cell-based, Human; details: 48 hours, un-treated control = 100
Protocol: Human fibroblasts were cultured in a 48-well plate type incubator at a concentration of 10^4. The media were exchanged with new medium (theanine: 1, 10, 100 um) containing each test substance of Table 7 at a concentration of 0.001 μM, 0.01 μM, 0.1 μM, 0.5 μM and 2 μM. After 48 hours of cultivation, each supernatant was harvested and subjected to ELISA (Takara MK101) to measure the amount of produced pro-collagen.
Also, in order to examine the synergic effect of theanine on collagen biosynthesis, theanine 10 μM was added to catechin at different 4 concentrations and the result is shown in Table 8.

type IV collagen = experiment: Biosynthesis of type IV collagen in keratinocytes (Dot Blot); assay type: cell-based; details: human keratinocytes, 10 ppm, 24 hours; control = 100
Protocol: The media were exchanged with new medium containing 10 ppm of each test substance. After 24 hours of cultivation, each supernatant was harvested and subjected to the Dot Blot method to measure the amount of produced type IV collagen.

[4] = tested on: Type I Collagenase (MMP-1); experiment: Type I collagenase (MMP-1) biosynthesis with UV-A, TNF-α and antibody against TNF-α (ELISA); assay type: cell-based, Human
Protocol: Human fibroblasts isolated from the skin of new born baby were cultured in a 48-well plate type incubator at a concentration of 10^4. after 24 hours, the plate was irradiated by UV-A at 15 J/cm^2 and antibody against tumor necrosis factor alpha was added thereto in a concentration of 1 ug/ml. At the second day of cultivation, the supernatants were harvested and subjected to ELISA (AP biotech RPN2610) to determine the amount of produced type I collagenase. The result is shown in Table 15 as comparative values, referred to 100 of control which was not treated.

`O=C(O[C@@H]1Cc2c(O)cc(O)cc2O[C@@H]1c1cc(O)c(O)c(O)c1)c1cc(O)c(O)c(O)c1` [EGCG, epigallocatechin gallate] was tested, and the “TNF-α biosynthesis (%)” value [1] was 35%, the PPAR-α activity ([2]; 10 μM) was 1.0 and the PPAR-α activity ([2]; 100 μM) was 1.5. For the same molecule, the “MMP-2 (%)” value (MMP-2) was 52%, the “Type I collagenase biosynthesis (%), UV-A + TNF-α treated group” value [3] was 88% and the “Type I collagenase biosynthesis (%), UV-A irradiated group” value [3] was 42%. The “MMP-9 (%)” value (MMP-9) was 56%, the “laminin 10/11 biosynthesis (%)” value (laminin 10/11) was 137% and the “type VII collagen biosynthesis (%)” value (type VII collagen) was 127%. The Collagen biosynthesis (pro-collagen; 0.001 μM) was 101.4, the Collagen biosynthesis (pro-collagen; 0.01 μM) was 154.6 and the Collagen biosynthesis (pro-collagen; 0.1 μM) was 133.8. For the same molecule, the Collagen biosynthesis (pro-collagen; 0.5 μM) was 155.8, the Collagen biosynthesis (pro-collagen; 2 μM) was 78.4 and the “Type IV collagen biosynthesis (%)” value (type IV collagen) was 138%.

For `O=C(O[C@@H]1Cc2c(O)cc(O)cc2O[C@H]1c1cc(O)c(O)c(O)c1)c1cc(O)c(O)c(O)c1` [GCG, gallocatechin gallate], the “TNF-α biosynthesis (%)” value [1] was 27%, the PPAR-α activity ([2]; 100 μM) was 2.3 and the “MMP-2 (%)” value (MMP-2) was 53%. The “Type I collagenase biosynthesis (%), UV-A + TNF-α treated group” value [3] was 86%, the “Type I collagenase biosynthesis (%), UV-A irradiated group” value [3] was 43% and the “MMP-9 (%)” value (MMP-9) was 56%. For the same molecule, the “laminin 10/11 biosynthesis (%)” value (laminin 10/11) was 131%, the “type VII collagen biosynthesis (%)” value (type VII collagen) was 121% and the Collagen biosynthesis (pro-collagen; 0.001 μM) was 98.9. For the same molecule, the Collagen biosynthesis (pro-collagen; 0.01 μM) was 138.3, the Collagen biosynthesis (pro-collagen; 0.1 μM) was 147.0 and the Collagen biosynthesis (pro-collagen; 0.5 μM) was 157.1. The Collagen biosynthesis (pro-collagen; 2 μM) was 75.2 and the “Type IV collagen biosynthesis (%)” value (type IV collagen) was 135%.

TNF-α was tested, and the “type I collagenase, UV-A irradiated group, column headed TNF-α treated group” value ([4]; UV-A 15 J/cm^2, antibody against TNF-α 1 ug/ml, untreated control = 100 (UV-A without antibody 210)) was 134 and the “type I collagenase, TNF-α treated group, No-Antibody treated group” value ([4]; new born human fibroblasts, untreated control = 100) was 250.
